Measured values from patent US12077503B2, “Substituted cyclic amides and their use as herbicides” (FMC CORPORATION, priority 2015, dated 2024).

Key:
Format in all cases: in vivo
rice (Oryra sativa) = test: Test B flooded paddy test; conditions: Flood, 500 g ai/ha; 0 to 100 scale where 0 is no effect and 100 is complete control; 13 to 15 d
Summary of the method: (§1)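 Compound goes directly into floodwater once pots are flooded 3 cm above soil, targeting plants at two leaves; the water depth is then held for the test duration. Plants sit 13–15 d in a greenhouse and are rated visually, 100 denoting complete control.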

[1] = tested on: sedge, umbrella (small-flower umbrella sedge, Cyperus difformis); test: Test B flooded paddy test; conditions: Flood, 500 g ai/ha; 0 to 100 scale where 0 is no effect and 100 is complete control; 13 to 15 d
Summary of the method: as §1

[2] = tested on: ducksalad (Heteranthera limosa); test: Test B flooded paddy test; conditions: Flood, 500 g ai/ha; 0 to 100 scale where 0 is no effect and 100 is complete control; 13 to 15 d
Summary of the method: as §1

[3] = tested on: barnyardgrass (Echinochloa crus-galli); test: Test B flooded paddy test; conditions: Flood, 500 g ai/ha; 0 to 100 scale where 0 is no effect and 100 is complete control; 13 to 15 d
Summary of the method: as §1

[4] = tested on: ragweed (common ragweed, Ambrosia elatior); test: Test A preemergence; conditions: for Plant response rating, Ragweed: 125 g ai/ha, preemergence, 0 to 100 scale (0 no effect, 100 complete control); for Ragweed plant response rating (0 to 100 scale, 0 is no effect, 100 is complete control): Preemergence, 500 g ai/ha, visual injury approx. 10 d
Summary of the method: (§2)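 Visual injury, scored on a 0–100 scale relative to untreated controls, was recorded about 10 d after application. Treatments were a preemergence soil spray over planted seeds or a postemergence spray on plants at the one- to two-leaf stage, 2 to 10 cm tall, all in loam soil–sand blend in the greenhouse.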

[5] = tested on: pigweed (Amaranthus retroflexus); test: Test A preemergence; conditions: for Plant response rating, Pigweed: 125 g ai/ha, preemergence, 0 to 100 scale (0 no effect, 100 complete control); for Pigweed plant response rating (0 to 100 scale, 0 is no effect, 100 is complete control): Preemergence, 500 g ai/ha, visual injury approx. 10 d
Kochia (Kochia scoparia) [6] = test: Test A preemergence; conditions: for Plant response rating, Kochia: 125 g ai/ha, preemergence, 0 to 100 scale (0 no effect, 100 complete control); for Kochia plant response rating (0 to 100 scale, 0 is no effect, 100 is complete control): Preemergence, 500 g ai/ha, visual injury approx. 10 d
Summary of the method: as §2

[7] = tested on: giant foxtail (Setaria faberii); test: Test A preemergence; conditions: for Plant response rating, Foxtail, Giant: 125 g ai/ha, preemergence, 0 to 100 scale (0 no effect, 100 complete control); for Foxtail, Giant plant response rating (0 to 100 scale, 0 is no effect, 100 is complete control): Preemergence, 500 g ai/ha, visual injury approx. 10 d
Summary of the method: as §2

[8] = tested on: ryegrass, Italian (Italian ryegrass, Lolium multiflorum); test: Test A preemergence; conditions: for Plant response rating, Ryegrass, Italian: 125 g ai/ha, preemergence, 0 to 100 scale (0 no effect, 100 complete control); for Ryegrass, Italian plant response rating (0 to 100 scale, 0 is no effect, 100 is complete control): Preemergence, 500 g ai/ha, visual injury approx. 10 d
Summary of the method: as §2

[9] = tested on: barnyardgrass (Echinochloa crus-galli); test: Test A preemergence; conditions: for Plant response rating, Barnyardgrass: 125 g ai/ha, preemergence, 0 to 100 scale (0 no effect, 100 complete control); for Barnyardgrass plant response rating (0 to 100 scale, 0 is no effect, 100 is complete control): Preemergence, 500 g ai/ha, visual injury approx. 10 d
Summary of the method: as §2

[10] = tested on: blackgrass (Alopecurus myosuroides); test: Test A postemergence; conditions: postemergence; for Blackgrass plant response rating: 125 g ai/ha, visual injury rating on 0 to 100 scale (0 no effect, 100 complete control), approx. 10 d; for Plant response rating, Blackgrass: 500 g ai/ha, 0 to 100 scale, 0 no effect, 100 complete control
Summary of the method: as §2

[11] = tested on: ragweed (common ragweed, Ambrosia elatior); test: Test A postemergence; conditions: postemergence; for Ragweed plant response rating: 125 g ai/ha, visual injury rating on 0 to 100 scale (0 no effect, 100 complete control), approx. 10 d; for Plant response rating, Ragweed: 500 g ai/ha, 0 to 100 scale, 0 no effect, 100 complete control
Summary of the method: as §2

[12] = tested on: Galium (catchweed bedstraw, Galium aparine); test: Test A postemergence; conditions: postemergence; for Galium plant response rating: 125 g ai/ha, visual injury rating on 0 to 100 scale (0 no effect, 100 complete control), approx. 10 d; for Plant response rating, Galium: 500 g ai/ha, 0 to 100 scale, 0 no effect, 100 complete control
Summary of the method: as §2

[13] = tested on: pigweed (Amaranthus retroflexus); test: Test A postemergence; conditions: postemergence; for Pigweed plant response rating: 125 g ai/ha, visual injury rating on 0 to 100 scale (0 no effect, 100 complete control), approx. 10 d; for Plant response rating, Pigweed: 500 g ai/ha, 0 to 100 scale, 0 no effect, 100 complete control
Summary of the method: as §2

[14] = tested on: wheat (Triticum aestivum); test: Test A postemergence; conditions: postemergence; for Wheat plant response rating: 125 g ai/ha, visual injury rating on 0 to 100 scale (0 no effect, 100 complete control), approx. 10 d; for Plant response rating, Wheat: 500 g ai/ha, 0 to 100 scale, 0 no effect, 100 complete control
Summary of the method: as §2

corn (Zea mays) = test: Test A postemergence; conditions: postemergence; for Corn plant response rating: 125 g ai/ha, visual injury rating on 0 to 100 scale (0 no effect, 100 complete control), approx. 10 d; for Plant response rating, Corn: 500 g ai/ha, 0 to 100 scale, 0 no effect, 100 complete control
Summary of the method: as §2

Kochia (Kochia scoparia) [15] = test: Test A postemergence; conditions: postemergence; for Kochia plant response rating: 125 g ai/ha, visual injury rating on 0 to 100 scale (0 no effect, 100 complete control), approx. 10 d; for Plant response rating, Kochia: 500 g ai/ha, 0 to 100 scale, 0 no effect, 100 complete control
Summary of the method: as §2

[16] = tested on: giant foxtail (Setaria faberii); test: Test A postemergence; conditions: postemergence; for Foxtail, Giant plant response rating: 125 g ai/ha, visual injury rating on 0 to 100 scale (0 no effect, 100 complete control), approx. 10 d; for Plant response rating, Foxtail, Giant: 500 g ai/ha, 0 to 100 scale, 0 no effect, 100 complete control
Summary of the method: as §2

[17] = tested on: ryegrass, Italian (Italian ryegrass, Lolium multiflorum); test: Test A postemergence; conditions: postemergence; for Ryegrass, Italian plant response rating: 125 g ai/ha, visual injury rating on 0 to 100 scale (0 no effect, 100 complete control), approx. 10 d; for Plant response rating, Ryegrass, Italian: 500 g ai/ha, 0 to 100 scale, 0 no effect, 100 complete control
Summary of the method: as §2

[18] = tested on: barnyardgrass (Echinochloa crus-galli); test: Test A postemergence; conditions: postemergence; for Barnyardgrass plant response rating: 125 g ai/ha, visual injury rating on 0 to 100 scale (0 no effect, 100 complete control), approx. 10 d; for Plant response rating, Barnyardgrass: 500 g ai/ha, 0 to 100 scale, 0 no effect, 100 complete control
Summary of the method: as §2

SMILES | Plant response rating, Rice (rice (Oryra sativa)) | Plant response rating, Sedge, Umbrella [1] | Plant response rating, Ducksalad [2] | Plant response rating, Barnyardgrass [3] | Plant response rating, Ragweed [4] | Ragweed plant response rating (0 to 100 scale, 0 is no effect, 100 is complete control) [4] | Plant response rating, Pigweed [5] | Pigweed plant response rating (0 to 100 scale, 0 is no effect, 100 is complete control) [5] | Plant response rating, Kochia (Kochia (Kochia scoparia) [6]) | Kochia plant response rating (0 to 100 scale, 0 is no effect, 100 is complete control) (Kochia (Kochia scoparia) [6]) | Plant response rating, Foxtail, Giant [7] | Foxtail, Giant plant response rating (0 to 100 scale, 0 is no effect, 100 is complete control) [7] | Plant response rating, Ryegrass, Italian [8] | Ryegrass, Italian plant response rating (0 to 100 scale, 0 is no effect, 100 is complete control) [8] | Plant response rating, Barnyardgrass [9] | Barnyardgrass plant response rating (0 to 100 scale, 0 is no effect, 100 is complete control) [9] | Blackgrass plant response rating [10] | Plant response rating, Blackgrass [10] | Ragweed plant response rating [11] | Plant response rating, Ragweed [11] | further results
O=C1NCC(c2ccc(F)c(F)c2)C1C(=O)Nc1ccc(Cl)cc1F (stereo not drawn) [Compound 410] | 0 | 0 | 30 | 0 | 0 | 0 | 0 | 20 | 0 | 0 | 70 | 80 | 0 | 0 | 50 | 60 | 0 | 20 | 0 | 0 | Galium plant response rating [12]: 0; Plant response rating, Galium [12]: 0; Pigweed plant response rating [13]: 0; Plant response rating, Pigweed [13]: 20; Wheat plant response rating [14]: 0; Plant response rating, Wheat [14]: 0; Corn plant response rating (corn (Zea mays)): 0; Plant response rating, Corn (corn (Zea mays)): 0; Kochia plant response rating (Kochia (Kochia scoparia) [15]): 0; Plant response rating, Kochia (Kochia (Kochia scoparia) [15]): 0; Foxtail, Giant plant response rating [16]: 0; Plant response rating, Foxtail, Giant [16]: 40; Ryegrass, Italian plant response rating [17]: 0; Plant response rating, Ryegrass, Italian [17]: 0; Barnyardgrass plant response rating [18]: 20; Plant response rating, Barnyardgrass [18]: 50
Cc1cc(NC(=O)C2C(=O)NCC2c2ccc(F)c(F)c2)ccc1C(F)(F)F (stereo not drawn) [Compound 414] | 0 | 0 | 40 | 0 | 0 | 0 | 0 | 0 | 0 | 0 | 0 | 10 | 0 | 0 | 0 | 0 | 0 | 0 | 0 | 0 | Galium plant response rating [12]: 0; Plant response rating, Galium [12]: 0; Pigweed plant response rating [13]: 0; Plant response rating, Pigweed [13]: 0; Wheat plant response rating [14]: 0; Plant response rating, Wheat [14]: 0; Corn plant response rating (corn (Zea mays)): 0; Plant response rating, Corn (corn (Zea mays)): 0; Kochia plant response rating (Kochia (Kochia scoparia) [15]): 0; Plant response rating, Kochia (Kochia (Kochia scoparia) [15]): 10; Foxtail, Giant plant response rating [16]: 0; Plant response rating, Foxtail, Giant [16]: 0; Ryegrass, Italian plant response rating [17]: 0; Plant response rating, Ryegrass, Italian [17]: 0; Barnyardgrass plant response rating [18]: 0; Plant response rating, Barnyardgrass [18]: 0
COc1cccc(NC(=O)C2C(=O)NCC2c2ccc(F)c(F)c2)c1F (stereo not drawn) [Compound 416] | 15 | 0 | 50 | 0 | 0 | 0 | 0 | 0 | 0 | 0 | 0 | 50 | 0 | 0 | 0 | 0 | 0 | 0 | 0 | 0 | Galium plant response rating [12]: 0; Plant response rating, Galium [12]: 0; Pigweed plant response rating [13]: 0; Plant response rating, Pigweed [13]: 0; Wheat plant response rating [14]: 0; Plant response rating, Wheat [14]: 0; Corn plant response rating (corn (Zea mays)): 0; Plant response rating, Corn (corn (Zea mays)): 0; Kochia plant response rating (Kochia (Kochia scoparia) [15]): 0; Plant response rating, Kochia (Kochia (Kochia scoparia) [15]): 0; Foxtail, Giant plant response rating [16]: 0; Plant response rating, Foxtail, Giant [16]: 0; Ryegrass, Italian plant response rating [17]: 0; Plant response rating, Ryegrass, Italian [17]: 0; Barnyardgrass plant response rating [18]: 0; Plant response rating, Barnyardgrass [18]: 0
O=C1NCC(c2cccc(OC(F)F)c2)C1C(=O)Nc1cccc(OC(F)F)c1 (stereo not drawn) [Compound 422] | 0 | 0 | 50 | 0 | 0 | 0 | 20 | 30 | 0 | 0 | 60 | 70 | 0 | 0 | 40 | 70 | 30 | 50 | 0 | 0 | Galium plant response rating [12]: 30; Plant response rating, Galium [12]: 70; Pigweed plant response rating [13]: 40; Plant response rating, Pigweed [13]: 60; Wheat plant response rating [14]: 0; Plant response rating, Wheat [14]: 0; Corn plant response rating (corn (Zea mays)): 0; Plant response rating, Corn (corn (Zea mays)): 0; Kochia plant response rating (Kochia (Kochia scoparia) [15]): 50; Plant response rating, Kochia (Kochia (Kochia scoparia) [15]): 60; Foxtail, Giant plant response rating [16]: 50; Plant response rating, Foxtail, Giant [16]: 60; Ryegrass, Italian plant response rating [17]: 0; Plant response rating, Ryegrass, Italian [17]: 0; Barnyardgrass plant response rating [18]: 50; Plant response rating, Barnyardgrass [18]: 60
COc1cccc(NC(=O)C2C(=O)NCC2c2cccc(OC(F)F)c2)c1F (stereo not drawn) [Compound 426] | 0 | 0 | 40 | 0 | 0 | 0 | 0 | 30 | 0 | 0 | 80 | 90 | 0 | 0 | 50 | 80 | 0 | 0 | 0 | 0 | Galium plant response rating [12]: 0; Plant response rating, Galium [12]: 0; Pigweed plant response rating [13]: 0; Plant response rating, Pigweed [13]: 0; Wheat plant response rating [14]: 0; Plant response rating, Wheat [14]: 0; Corn plant response rating (corn (Zea mays)): 0; Plant response rating, Corn (corn (Zea mays)): 0; Kochia plant response rating (Kochia (Kochia scoparia) [15]): 0; Plant response rating, Kochia (Kochia (Kochia scoparia) [15]): 0; Foxtail, Giant plant response rating [16]: 20; Plant response rating, Foxtail, Giant [16]: 60; Ryegrass, Italian plant response rating [17]: 0; Plant response rating, Ryegrass, Italian [17]: 0; Barnyardgrass plant response rating [18]: 30; Plant response rating, Barnyardgrass [18]: 70
